Results as given in ChEMBL document CHEMBL4507264, “Data for DCP probe BAY-7598” (2021).

Tests used:
[1] = target: Serine/threonine-protein kinase PLK2 (Homo sapiens) (UniProt Q9NYY3); conditions: Compound concentration 1000.0 nM
[2] = test system: Tyrosine-protein kinase ABL1 (Homo sapiens), P00519 [Q252H]; conditions: Compound concentration 1000.0 nM
[3] = target: Serine/threonine-protein kinase PLK1 (Homo sapiens) (UniProt P53350); conditions: Compound concentration 1000.0 nM
[4] = target: Ribosomal protein S6 kinase alpha-4 (Homo sapiens) (UniProt O75676); conditions: Compound concentration 1000.0 nM
[5] = target: BMP-2-inducible protein kinase (Homo sapiens) (UniProt Q9NSY1); conditions: Compound concentration 1000.0 nM
[6] = target: Serine/threonine-protein kinase Nek10 (Homo sapiens) (UniProt Q6ZWH5); conditions: Compound concentration 1000.0 nM
[7] = target: Tyrosine-protein kinase ZAP-70 (Homo sapiens) (UniProt P43403); conditions: Compound concentration 1000.0 nM
Tyrosine-protein kinase ZAP-70 (Homo sapiens), sequence (P43403 whole entry): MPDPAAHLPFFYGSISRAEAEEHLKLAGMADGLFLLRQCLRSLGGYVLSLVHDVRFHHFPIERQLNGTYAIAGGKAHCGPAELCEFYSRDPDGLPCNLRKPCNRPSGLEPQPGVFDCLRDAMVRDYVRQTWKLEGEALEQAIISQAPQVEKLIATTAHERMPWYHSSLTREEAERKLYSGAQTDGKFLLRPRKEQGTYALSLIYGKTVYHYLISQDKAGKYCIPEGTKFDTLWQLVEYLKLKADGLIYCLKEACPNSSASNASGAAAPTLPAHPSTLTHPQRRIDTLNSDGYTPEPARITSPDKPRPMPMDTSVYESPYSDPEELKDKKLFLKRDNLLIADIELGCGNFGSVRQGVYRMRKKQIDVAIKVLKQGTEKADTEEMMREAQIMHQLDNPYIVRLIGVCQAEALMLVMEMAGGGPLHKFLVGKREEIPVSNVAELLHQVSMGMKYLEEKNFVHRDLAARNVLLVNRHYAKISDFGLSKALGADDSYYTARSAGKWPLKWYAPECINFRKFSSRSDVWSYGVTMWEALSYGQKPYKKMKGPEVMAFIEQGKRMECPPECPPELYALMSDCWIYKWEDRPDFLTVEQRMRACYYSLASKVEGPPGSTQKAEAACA

[8] = target: SRSF protein kinase 1 (Homo sapiens) (UniProt Q96SB4); conditions: Compound concentration 1000.0 nM
SRSF protein kinase 1 (Homo sapiens), sequence (Q96SB4 whole entry): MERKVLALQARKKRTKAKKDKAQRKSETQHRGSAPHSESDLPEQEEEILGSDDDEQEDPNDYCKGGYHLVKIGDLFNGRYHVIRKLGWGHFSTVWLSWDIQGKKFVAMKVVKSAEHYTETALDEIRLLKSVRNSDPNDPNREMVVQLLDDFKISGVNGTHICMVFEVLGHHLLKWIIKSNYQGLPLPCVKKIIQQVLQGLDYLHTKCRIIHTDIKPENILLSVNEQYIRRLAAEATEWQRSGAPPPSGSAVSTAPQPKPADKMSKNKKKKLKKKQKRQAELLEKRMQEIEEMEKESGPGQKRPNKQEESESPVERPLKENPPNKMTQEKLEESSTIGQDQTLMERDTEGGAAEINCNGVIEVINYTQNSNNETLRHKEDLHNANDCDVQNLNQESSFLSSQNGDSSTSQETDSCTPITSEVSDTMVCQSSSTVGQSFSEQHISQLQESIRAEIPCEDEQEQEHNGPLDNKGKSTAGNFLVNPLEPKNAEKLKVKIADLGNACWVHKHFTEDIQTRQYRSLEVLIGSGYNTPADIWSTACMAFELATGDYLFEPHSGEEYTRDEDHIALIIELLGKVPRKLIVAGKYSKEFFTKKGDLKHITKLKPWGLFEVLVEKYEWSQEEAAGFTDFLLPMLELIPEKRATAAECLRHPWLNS

[9] = target: Kappa-type opioid receptor (Homo sapiens) (UniProt P41145); conditions: Compound concentration 10.0 uM
[10] = target: Cyclin-dependent kinase 4 (Homo sapiens) (UniProt P11802); conditions: Compound concentration 1000.0 nM
Cyclin-dependent kinase 4 (Homo sapiens), sequence (P11802 whole entry): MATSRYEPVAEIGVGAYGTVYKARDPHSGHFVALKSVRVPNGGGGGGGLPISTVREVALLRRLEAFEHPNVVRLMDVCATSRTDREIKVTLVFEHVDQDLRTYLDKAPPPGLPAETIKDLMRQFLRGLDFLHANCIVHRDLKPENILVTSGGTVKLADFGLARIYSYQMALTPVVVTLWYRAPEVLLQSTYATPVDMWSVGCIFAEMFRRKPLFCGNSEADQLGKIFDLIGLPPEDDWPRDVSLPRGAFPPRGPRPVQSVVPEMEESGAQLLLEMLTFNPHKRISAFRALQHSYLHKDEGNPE

[11] = test system: Receptor-type tyrosine-protein kinase FLT3 (Homo sapiens), P36888 [UNDEFINED MUTATION]; conditions: Compound concentration 1000.0 nM
Receptor-type tyrosine-protein kinase FLT3 (Homo sapiens), P36888 [UNDEFINED MUTATION], sequence (P36888 whole entry, looked up, change not shown): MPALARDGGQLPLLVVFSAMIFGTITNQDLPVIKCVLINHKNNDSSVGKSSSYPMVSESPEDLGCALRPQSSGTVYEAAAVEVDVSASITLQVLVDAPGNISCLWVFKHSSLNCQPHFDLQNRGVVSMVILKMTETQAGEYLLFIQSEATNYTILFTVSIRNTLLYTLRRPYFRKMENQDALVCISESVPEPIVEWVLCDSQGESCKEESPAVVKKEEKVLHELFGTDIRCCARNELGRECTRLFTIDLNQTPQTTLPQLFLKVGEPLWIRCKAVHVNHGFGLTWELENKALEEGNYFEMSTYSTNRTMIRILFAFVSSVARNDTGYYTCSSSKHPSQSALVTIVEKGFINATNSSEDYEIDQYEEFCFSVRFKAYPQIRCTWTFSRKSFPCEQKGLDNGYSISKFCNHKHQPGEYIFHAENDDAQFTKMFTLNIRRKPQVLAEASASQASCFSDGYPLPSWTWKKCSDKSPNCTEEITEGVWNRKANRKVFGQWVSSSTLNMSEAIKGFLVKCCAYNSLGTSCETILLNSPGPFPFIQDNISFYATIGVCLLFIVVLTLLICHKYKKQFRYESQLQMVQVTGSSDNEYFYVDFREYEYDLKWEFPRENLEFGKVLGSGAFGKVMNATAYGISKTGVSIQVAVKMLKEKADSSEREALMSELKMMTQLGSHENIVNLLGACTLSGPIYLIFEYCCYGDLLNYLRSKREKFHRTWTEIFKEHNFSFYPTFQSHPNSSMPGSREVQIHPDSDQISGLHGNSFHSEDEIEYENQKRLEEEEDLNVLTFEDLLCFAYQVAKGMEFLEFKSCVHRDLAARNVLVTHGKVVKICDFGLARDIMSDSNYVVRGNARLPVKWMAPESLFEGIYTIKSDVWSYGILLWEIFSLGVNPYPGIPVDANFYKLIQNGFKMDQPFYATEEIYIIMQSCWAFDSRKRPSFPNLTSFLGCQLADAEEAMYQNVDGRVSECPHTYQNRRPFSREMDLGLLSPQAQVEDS

[12] = target: High affinity nerve growth factor receptor (Homo sapiens) (UniProt P04629); conditions: Compound concentration 1000.0 nM
[13] = target: cGMP-dependent protein kinase 1 (Homo sapiens) (UniProt Q13976); conditions: Compound concentration 1000.0 nM
[14] = target: Glycogen synthase kinase-3 beta (Homo sapiens) (UniProt P49841); conditions: Compound concentration 1000.0 nM
[15] = target: Tyrosine-protein kinase JAK1 (Homo sapiens) (UniProt P23458); conditions: Compound concentration 1000.0 nM
[16] = test system: Epidermal growth factor receptor (Homo sapiens), P00533 [G719S]; conditions: Compound concentration 1000.0 nM
[17] = target: G protein-coupled receptor kinase 4 (Homo sapiens) (UniProt P32298); conditions: Compound concentration 1000.0 nM
[18] = target: Serine/threonine-protein kinase mTOR (Homo sapiens) (UniProt P42345); conditions: Compound concentration 1000.0 nM
[19] = target: Tyrosine-protein kinase ABL2 (Homo sapiens) (UniProt P42684); conditions: Compound concentration 1000.0 nM
[20] = target: Serine/threonine-protein kinase TAO3 (Homo sapiens) (UniProt Q9H2K8); conditions: Compound concentration 1000.0 nM
[21] = target: TGF-beta receptor type-1 (Homo sapiens) (UniProt P36897); conditions: Compound concentration 1000.0 nM
[22] = target: Serine/threonine-protein kinase SIK1 (Homo sapiens) (UniProt P57059); conditions: Compound concentration 1000.0 nM
[23] = target: Mitogen-activated protein kinase 9 (Homo sapiens) (UniProt P45984); conditions: Compound concentration 1000.0 nM
[24] = target: Serine/threonine-protein kinase 16 (Homo sapiens) (UniProt O75716); conditions: Compound concentration 1000.0 nM
[25] = target: Mitogen-activated protein kinase 10 (Homo sapiens) (UniProt P53779); conditions: Compound concentration 1000.0 nM
[26] = target: Wee1-like protein kinase (Homo sapiens) (UniProt P30291); conditions: Compound concentration 1000.0 nM
[27] = target: MAP kinase-activated protein kinase 2 (Homo sapiens) (UniProt P49137); conditions: Compound concentration 1000.0 nM
[28] = target: G protein-coupled receptor kinase 3 (Homo sapiens) (UniProt P35626); conditions: Compound concentration 1000.0 nM
[29] = target: MAP kinase-interacting serine/threonine-protein kinase 2 (Homo sapiens) (UniProt Q9HBH9); conditions: Compound concentration 1000.0 nM
[30] = test system: Epidermal growth factor receptor (Homo sapiens), P00533 [G719C]; conditions: Compound concentration 1000.0 nM
[31] = target: Fibroblast growth factor receptor 4 (Homo sapiens) (UniProt P22455); conditions: Compound concentration 1000.0 nM
[32] = target: T1, Alpha-1D adrenergic receptor (Homo sapiens) (UniProt P25100); conditions: Compound concentration 10.0 uM
T1 sequence (whole entry): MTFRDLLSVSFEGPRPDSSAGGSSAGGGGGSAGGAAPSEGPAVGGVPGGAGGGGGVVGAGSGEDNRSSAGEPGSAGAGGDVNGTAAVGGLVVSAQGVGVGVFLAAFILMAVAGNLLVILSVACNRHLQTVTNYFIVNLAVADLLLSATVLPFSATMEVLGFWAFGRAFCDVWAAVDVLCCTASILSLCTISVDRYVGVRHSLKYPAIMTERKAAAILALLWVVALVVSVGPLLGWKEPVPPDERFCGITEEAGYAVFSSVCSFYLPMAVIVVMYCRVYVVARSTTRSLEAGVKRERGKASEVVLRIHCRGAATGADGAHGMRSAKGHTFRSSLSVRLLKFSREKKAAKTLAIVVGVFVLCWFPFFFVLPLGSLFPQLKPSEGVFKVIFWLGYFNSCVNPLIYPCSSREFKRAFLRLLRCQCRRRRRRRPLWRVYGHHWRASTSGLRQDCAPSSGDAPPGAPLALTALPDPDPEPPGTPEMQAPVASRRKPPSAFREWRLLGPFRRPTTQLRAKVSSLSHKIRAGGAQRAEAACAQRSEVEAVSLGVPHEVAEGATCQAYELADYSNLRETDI

[33] = target: Myosin light chain kinase 2, skeletal/cardiac muscle (Homo sapiens) (UniProt Q9H1R3); conditions: Compound concentration 1000.0 nM
[34] = target: Protein kinase C iota type (Homo sapiens) (UniProt P41743); conditions: Compound concentration 1000.0 nM
[35] = target: Mitogen-activated protein kinase kinase kinase 11 (Homo sapiens) (UniProt Q16584); conditions: Compound concentration 1000.0 nM
[36] = target: Serine/threonine-protein kinase 32A (Homo sapiens) (UniProt Q8WU08); conditions: Compound concentration 1000.0 nM
[37] = target: Muscarinic acetylcholine receptor M4 (Homo sapiens) (UniProt P08173); conditions: Compound concentration 10.0 uM
[38] = test system: Leucine-rich repeat serine/threonine-protein kinase 2 (Homo sapiens), Q5S007 [G2019S]; conditions: Compound concentration 1000.0 nM
Leucine-rich repeat serine/threonine-protein kinase 2 (Homo sapiens), Q5S007 [G2019S], sequence (Q5S007 whole entry G2019S): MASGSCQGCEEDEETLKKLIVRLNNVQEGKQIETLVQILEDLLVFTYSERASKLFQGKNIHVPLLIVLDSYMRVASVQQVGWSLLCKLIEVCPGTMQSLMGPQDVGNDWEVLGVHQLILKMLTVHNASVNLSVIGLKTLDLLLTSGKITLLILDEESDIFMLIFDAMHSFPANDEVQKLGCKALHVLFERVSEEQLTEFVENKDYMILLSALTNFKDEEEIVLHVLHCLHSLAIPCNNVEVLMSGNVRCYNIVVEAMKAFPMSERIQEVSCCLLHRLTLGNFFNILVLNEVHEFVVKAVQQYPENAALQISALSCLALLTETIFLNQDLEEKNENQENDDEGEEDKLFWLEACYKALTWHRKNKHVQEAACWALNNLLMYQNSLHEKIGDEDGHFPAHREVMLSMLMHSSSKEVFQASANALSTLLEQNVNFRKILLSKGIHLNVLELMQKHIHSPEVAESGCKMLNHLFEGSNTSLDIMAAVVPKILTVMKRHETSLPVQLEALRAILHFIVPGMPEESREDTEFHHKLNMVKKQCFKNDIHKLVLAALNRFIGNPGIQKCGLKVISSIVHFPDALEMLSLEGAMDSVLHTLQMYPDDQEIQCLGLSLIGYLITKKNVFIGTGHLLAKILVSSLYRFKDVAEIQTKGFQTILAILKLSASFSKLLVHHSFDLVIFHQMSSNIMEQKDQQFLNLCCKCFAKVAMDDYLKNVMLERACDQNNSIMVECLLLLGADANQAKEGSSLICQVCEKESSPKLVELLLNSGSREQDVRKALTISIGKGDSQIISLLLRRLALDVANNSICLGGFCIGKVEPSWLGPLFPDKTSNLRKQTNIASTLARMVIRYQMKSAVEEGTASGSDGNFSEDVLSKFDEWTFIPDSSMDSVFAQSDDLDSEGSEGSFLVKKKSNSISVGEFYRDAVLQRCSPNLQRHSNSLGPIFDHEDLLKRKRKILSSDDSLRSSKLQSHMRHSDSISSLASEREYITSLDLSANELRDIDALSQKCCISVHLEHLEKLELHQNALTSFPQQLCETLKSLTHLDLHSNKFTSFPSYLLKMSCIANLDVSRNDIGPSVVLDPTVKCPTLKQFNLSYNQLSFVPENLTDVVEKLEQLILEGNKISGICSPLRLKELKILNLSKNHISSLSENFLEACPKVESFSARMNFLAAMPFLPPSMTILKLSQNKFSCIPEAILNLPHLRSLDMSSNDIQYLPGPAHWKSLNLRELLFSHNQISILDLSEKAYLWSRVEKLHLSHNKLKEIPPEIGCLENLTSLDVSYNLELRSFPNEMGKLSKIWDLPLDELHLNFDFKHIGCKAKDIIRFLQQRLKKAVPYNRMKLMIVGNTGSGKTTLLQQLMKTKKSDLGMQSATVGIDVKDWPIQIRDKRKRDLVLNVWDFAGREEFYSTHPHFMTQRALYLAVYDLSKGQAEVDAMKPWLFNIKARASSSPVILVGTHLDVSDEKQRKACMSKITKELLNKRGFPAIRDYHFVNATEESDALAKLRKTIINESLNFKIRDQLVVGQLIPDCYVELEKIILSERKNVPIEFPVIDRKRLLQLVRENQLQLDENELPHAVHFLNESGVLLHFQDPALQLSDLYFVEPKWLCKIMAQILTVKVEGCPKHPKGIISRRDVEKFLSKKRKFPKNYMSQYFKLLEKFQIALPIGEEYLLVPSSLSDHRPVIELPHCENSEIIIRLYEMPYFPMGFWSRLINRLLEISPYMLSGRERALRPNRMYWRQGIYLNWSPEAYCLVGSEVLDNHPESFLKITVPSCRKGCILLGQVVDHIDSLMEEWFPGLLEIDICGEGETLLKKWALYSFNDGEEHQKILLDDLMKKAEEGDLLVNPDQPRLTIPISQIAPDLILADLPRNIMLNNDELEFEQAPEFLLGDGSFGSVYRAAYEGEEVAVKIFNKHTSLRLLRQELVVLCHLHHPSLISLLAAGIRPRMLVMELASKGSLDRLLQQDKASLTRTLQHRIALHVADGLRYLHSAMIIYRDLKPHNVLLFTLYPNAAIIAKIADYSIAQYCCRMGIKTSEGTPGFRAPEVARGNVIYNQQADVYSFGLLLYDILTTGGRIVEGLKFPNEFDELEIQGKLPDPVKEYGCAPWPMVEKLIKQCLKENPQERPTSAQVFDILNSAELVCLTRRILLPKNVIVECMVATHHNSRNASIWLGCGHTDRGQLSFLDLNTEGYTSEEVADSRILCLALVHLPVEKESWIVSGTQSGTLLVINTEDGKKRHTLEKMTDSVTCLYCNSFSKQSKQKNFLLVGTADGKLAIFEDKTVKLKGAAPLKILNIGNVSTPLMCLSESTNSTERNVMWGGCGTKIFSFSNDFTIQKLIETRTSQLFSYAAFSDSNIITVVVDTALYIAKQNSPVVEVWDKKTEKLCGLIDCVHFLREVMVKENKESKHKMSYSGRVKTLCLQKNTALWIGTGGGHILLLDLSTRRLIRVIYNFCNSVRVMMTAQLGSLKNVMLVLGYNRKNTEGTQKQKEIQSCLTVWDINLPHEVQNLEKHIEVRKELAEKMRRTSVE

O=C(O)[C@@H]1[C@@H](Cn2nnc3ccccc3c2=O)CC[C@H]1C(=O)c1ccc(OCCC2CCOCC2)cc1 [BAY-694]
inactive: residual activity [1] 92% | residual activity [2] 92% | residual activity [3] 80% | residual activity [4] 85% | residual activity [5] 100% | residual activity [6] 88% | residual activity [7] 99% | residual activity [8] 100% | inhibition [9] 8.5% | residual activity [10] 96% | residual activity [11] 100% | residual activity [12] 86% | residual activity [13] 100% | residual activity [14] 100% | residual activity [15] 79% | residual activity [16] 88% | residual activity [17] 100% | residual activity [18] 96% | residual activity [19] 92% | residual activity [20] 100% | residual activity [21] 100% | residual activity [22] 91% | residual activity [23] 100% | residual activity [24] 89% | residual activity [25] 100% | residual activity [26] 93% | residual activity [27] 100% | residual activity [28] 100% | residual activity [29] 99% | residual activity [30] 90% | residual activity [31] 99% | inhibition [32] 0.08% | residual activity [33] 100% | residual activity [34] 100% | residual activity [35] 92% | residual activity [36] 92% | inhibition [37] -7.11% | residual activity [38] 100%

O=C(O)[C@H]1[C@H](Cn2nnc3ccccc3c2=O)CC[C@@H]1C(=O)c1ccc(OCCC2CCOCC2)cc1 [BAY-7598]
inactive: residual activity [1] 100% | residual activity [2] 83% | residual activity [3] 75% | residual activity [4] 97% | residual activity [5] 86% | residual activity [6] 69% | residual activity [7] 100% | residual activity [8] 79% | inhibition [9] -3.04% | residual activity [10] 89% | residual activity [11] 93% | residual activity [12] 88% | residual activity [13] 75% | residual activity [14] 100% | residual activity [15] 88% | residual activity [16] 87% | residual activity [17] 82% | residual activity [18] 100% | residual activity [19] 99% | residual activity [20] 100% | residual activity [21] 90% | residual activity [22] 100% | residual activity [23] 79% | residual activity [24] 85% | residual activity [25] 83% | residual activity [26] 100% | residual activity [27] 89% | residual activity [28] 100% | residual activity [29] 83% | residual activity [30] 81% | residual activity [31] 100% | inhibition [32] 0.59% | residual activity [33] 83% | residual activity [34] 66% | residual activity [35] 92% | residual activity [36] 88% | inhibition [37] -5.24% | residual activity [38] 100%
